# Test results published in ChEMBL document CHEMBL4680261, “DDX3X inhibitors, an effective way to overcome HIV-1 resistance targeting host proteins” (Eur J Med Chem, 2020).
# Key:
# [1] = target: ATP-dependent RNA helicase DDX3X (Homo sapiens, UniProt O00571); experiment: Inhibition of human DDX3X using dsRNA as substrate measured every 30 sec for 40 mins by FRET assay
# [2] = Toxicity in BALB/c mouse assessed as effect on kidney at 32 mg/kg, iv administered three times a week for 3 weeks by hematoxylin and eosin staining based microscopic imaging analysis; format: organism-based; details: in vivo, 504 h
# [3] = Selectivity index, ratio of IC50 for antiviral activity against HIV-1 12231 harboring non-nucleoside reverse transcriptase K103N/V179F/Y181C mutant infected in human TZM-bl cells infected with supernatants from virus-infected human H9 cells to IC50 for antiviral activity against HIV-1 […] infected in human TZM-bl cells infected with supernatants from virus-infected human H9 cells; format: functional, Human immunodeficiency virus 1
# [4] = AUC (0 to t) in BALB/c mouse at 16 mg/kg, iv measured upto 24 hrs by HPLC-MS analysis; format: ADME, organism-based; set-up: route intravenous, dose 16 mg/kg, time <=24; details: in vivo
# [5] = Drug uptake in BALB/c mouse spleen at 16 to 32 mg/kg, iv measured upto 24 hrs; format: ADME, organism-based; details: in vivo, dose 16-32 mg/kg
# [6] = AUC (0 to t) in BALB/c mouse at 32 mg/kg, iv measured upto 24 hrs by HPLC-MS analysis; format: ADME, organism-based; set-up: route intravenous, dose 32 mg/kg, time <=24; details: in vivo
# [7] = Cmax in BALB/c mouse at 32 mg/kg, iv measured upto 24 hrs by HPLC-MS analysis; format: ADME, organism-based; set-up: route intravenous, dose 32 mg/kg, time <=24; details: in vivo
# [8] = Selectivity index, ratio of IC50 for antiviral activity against HIV-1 7400 harboring nucleos(t)ide reverse transcriptase M41L/E44D/D67N/T69D/M184VL210W/T215Y mutant infected in human TZM-bl cells infected with supernatants from virus-infected human H9 cells to IC50 for antiviral activity against HIV-1 […] infected in human TZM-bl cells infected with supernatants from virus-infected human H9 cells; format: functional, Human immunodeficiency virus 1
# [9] = system: Human immunodeficiency virus 1; experiment: Antiviral activity against HIV-1 7400 harboring nucleos(t)ide reverse transcriptase M41L/E44D/D67N/T69D/M184VL210W/T215Y mutant infected in human TZM-bl cells infected with supernatants from virus-infected human H9 cells treated with compound for 72 hrs assessed as reduction in luciferase expression measured after 48 hrs by luciferase reporter gene assay based BiCycle assay; format: functional, organism-based; details: Human immunodeficiency virus 1, 7400
# [10] = Observed volume of distribution at steady state in BALB/c mouse at 16 mg/kg, iv measured upto 24 hrs by HPLC-MS analysis; format: ADME, organism-based; details: in vivo, read-out: Vdss
# [11] = Drug uptake in BALB/c mouse brain at 16 to 32 mg/kg, iv measured upto 24 hrs; format: ADME, organism-based; details: in vivo, dose 16-32 mg/kg
# [12] = Observed AUC (0 to infinity) in BALB/c mouse at 16 mg/kg, iv measured upto 24 hrs by HPLC-MS analysis; format: ADME, organism-based; set-up: route intravenous, dose 16 mg/kg, time <=24; details: in vivo
# [13] = Plasma concentration in BALB/c mouse at 16 to 32 mg/kg, iv measured after 24 hrs; format: ADME, organism-based; details: dose 16-32 mg/kg
# [14] = Metabolic stability in human liver microsomes assessed as parent compound remaining measured after 60 mins by LC-UV-MS analysis; format: ADME, Microsome; details: read-out: Stabilty
# [15] = Observed AUC (0 to infinity) in BALB/c mouse at 32 mg/kg, iv measured upto 24 hrs by HPLC-MS analysis; format: ADME, organism-based; set-up: route intravenous, dose 32 mg/kg, time <=24; details: in vivo
# [16] = Cmax in BALB/c mouse at 8 mg/kg, iv measured upto 24 hrs by HPLC-MS analysis; format: ADME, organism-based; set-up: route intravenous, dose 8 mg/kg, time <=24; details: in vivo
# [17] = Observed clearance in BALB/c mouse at 16 mg/kg, iv measured upto 24 hrs by HPLC-MS analysis; format: ADME, organism-based; details: in vivo
# [18] = Toxicity in BALB/c mouse assessed as effect on liver at 32 mg/kg, iv administered three times a week for 3 weeks by hematoxylin and eosin staining based microscopic imaging analysis; format: organism-based; details: in vivo, 504 h
# [19] = Half life in BALB/c mouse at 32 mg/kg, iv measured upto 24 hrs by HPLC-MS analysis; format: ADME, organism-based; details: in vivo
# [20] = Selectivity index, ratio of IC50 for antiviral activity against HIV-1 11808 harboring protease V32I/I54V/I84V/L90M mutant infected in human TZM-bl cells infected with supernatants from virus-infected human H9 cells to IC50 for antiviral activity against HIV-1 […] infected in human TZM-bl cells infected with supernatants from virus-infected human H9 cells; format: functional, Human immunodeficiency virus 1
# [21] = AUC (0 to t) in BALB/c mouse at 8 mg/kg, iv measured upto 24 hrs by HPLC-MS analysis; format: ADME, organism-based; set-up: route intravenous, dose 8 mg/kg, time <=24; details: in vivo
# [22] = Half life in BALB/c mouse at 16 mg/kg, iv measured upto 24 hrs by HPLC-MS analysis; format: ADME, organism-based; details: in vivo
# [23] = Cmax in BALB/c mouse at 16 mg/kg, iv measured upto 24 hrs by HPLC-MS analysis; format: ADME, organism-based; set-up: route intravenous, dose 16 mg/kg, time <=24; details: in vivo
# [24] = Observed volume of distribution at steady state in BALB/c mouse at 8 mg/kg, iv measured upto 24 hrs by HPLC-MS analysis; format: ADME, organism-based; details: in vivo, read-out: Vdss
# [25] = Half life in BALB/c mouse at 8 mg/kg, iv measured upto 24 hrs by HPLC-MS analysis; format: ADME, organism-based; details: in vivo
# [26] = Observed clearance in BALB/c mouse at 8 mg/kg, iv measured upto 24 hrs by HPLC-MS analysis; format: ADME, organism-based; details: in vivo
# [27] = system: Human immunodeficiency virus 1; experiment: Antiviral activity against HIV-1 11847 harboring integrase G140S/Q148H mutant infected in human TZM-bl cells infected with supernatants from virus-infected human H9 cells treated with compound for 72 hrs assessed as reduction in luciferase expression measured after 48 hrs by luciferase reporter gene assay based BiCycle assay; format: functional, organism-based; details: Human immunodeficiency virus 1, 11847
# [28] = Toxicity in BALB/c mouse assessed as effect on brain at 32 mg/kg, iv administered three times a week for 3 weeks by hematoxylin and eosin staining based microscopic imaging analysis; format: organism-based; details: in vivo, 504 h
# [29] = Apparent permeability of compound incubated for 5 hrs by PAMPA assay; format: ADME
# [30] = Toxicity in BALB/c mouse assessed as reduction in body weight at 32 mg/kg, iv administered three times a week for 3 weeks; format: organism-based; details: in vivo, 504 h
# [31] = Toxicity in BALB/c mouse assessed as organism death at 32 mg/kg, iv administered three times a week for 3 weeks; format: organism-based; details: in vivo, 504 h
# [32] = Selectivity index, ratio of IC50 for antiviral activity against HIV-1 11847 harboring integrase G140S/Q148H mutant infected in human TZM-bl cells infected with supernatants from virus-infected human H9 cells to IC50 for antiviral activity against HIV-1 […] infected in human TZM-bl cells infected with supernatants from virus-infected human H9 cells; format: functional, Human immunodeficiency virus 1
# [33] = Plasma concentration in BALB/c mouse at 16 to 32 mg/kg, iv measured after 240 mins; format: ADME, organism-based; details: dose 16-32 mg/kg
# [34] = Observed AUC (0 to infinity) in BALB/c mouse at 8 mg/kg, iv measured upto 24 hrs by HPLC-MS analysis; format: ADME, organism-based; set-up: route intravenous, dose 8 mg/kg, time <=24; details: in vivo
# [35] = Tmax in BALB/c mouse at 16 to 32 mg/kg, iv measured upto 24 hrs; format: ADME, organism-based; details: in vivo, dose 16-32 mg/kg
# [36] = system: Human immunodeficiency virus 1; experiment: Antiviral activity against HIV-1 11808 harboring protease V32I/I54V/I84V/L90M mutant infected in human TZM-bl cells infected with supernatants from virus-infected human H9 cells treated with compound for 72 hrs assessed as reduction in luciferase expression measured after 48 hrs by luciferase reporter gene assay based BiCycle assay; format: functional, organism-based; details: Human immunodeficiency virus 1, 11808
# [37] = Drug excretion in BALB/c mouse at 16 to 32 mg/kg, iv measured upto 24 hrs; format: ADME, organism-based; details: in vivo, dose 16-32 mg/kg, read-out: Drug excretion
# [38] = system: Human immunodeficiency virus 1; experiment: Antiviral activity against HIV-1 NL4-3 infected in human TZM-bl cells infected with supernatants from virus-infected human H9 cells treated with compound for 72 hrs assessed as reduction in luciferase expression measured after 48 hrs by luciferase reporter gene assay based BiCycle assay; format: functional, organism-based; details: Human immunodeficiency virus 1, NL4-3
# [39] = system: Human immunodeficiency virus 1; experiment: Antiviral activity against HIV-1 12231 harboring non-nucleoside reverse transcriptase K103N/V179F/Y181C mutant infected in human TZM-bl cells infected with supernatants from virus-infected human H9 cells treated with compound for 72 hrs assessed as reduction in luciferase expression measured after 48 hrs by luciferase reporter gene assay based BiCycle assay; format: functional, organism-based; details: Human immunodeficiency virus 1, 12231
# ATP-dependent RNA helicase DDX3X, sequence (O00571 whole entry): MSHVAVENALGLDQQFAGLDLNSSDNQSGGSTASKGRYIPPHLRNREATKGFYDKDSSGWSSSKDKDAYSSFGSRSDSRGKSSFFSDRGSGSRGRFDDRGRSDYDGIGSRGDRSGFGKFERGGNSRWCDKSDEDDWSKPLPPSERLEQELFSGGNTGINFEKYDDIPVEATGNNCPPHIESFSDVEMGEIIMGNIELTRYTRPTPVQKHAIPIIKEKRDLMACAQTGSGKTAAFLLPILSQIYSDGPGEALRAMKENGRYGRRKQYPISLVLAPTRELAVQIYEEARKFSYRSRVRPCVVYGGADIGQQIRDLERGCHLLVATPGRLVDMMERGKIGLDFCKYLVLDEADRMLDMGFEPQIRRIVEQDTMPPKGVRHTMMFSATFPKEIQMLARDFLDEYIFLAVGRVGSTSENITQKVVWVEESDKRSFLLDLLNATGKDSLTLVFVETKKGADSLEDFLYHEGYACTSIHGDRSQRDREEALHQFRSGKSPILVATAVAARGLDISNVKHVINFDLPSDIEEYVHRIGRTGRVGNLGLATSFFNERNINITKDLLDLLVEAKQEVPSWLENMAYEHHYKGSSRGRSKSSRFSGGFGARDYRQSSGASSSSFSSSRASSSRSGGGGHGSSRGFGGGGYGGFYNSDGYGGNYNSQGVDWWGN
smiles,measurement,setting,value
CCCCc1cn(-c2ccc(NC(=O)Nc3cc(CCC(C)=O)ccc3C)cc2)nn1,IC50,[1]; read-out: IC50,2490 nM
CC(C)CCc1cn(-c2ccc(NC(=O)Nc3cccc4cnccc34)cc2)nn1,IC50,[1]; read-out: IC50,120 nM
same,Activity,[2],Non-Toxic
same,Ratio IC50,[3],0.8
same,AUC(0-t) at 24 h,[4],23700 ng·h/mL
same,Drug uptake,[5],Active
same,AUC(0-t) at 24 h,[6],98500 ng·h/mL
same,Cmax,[7],44400 ng/mL
same,Ratio IC50,[8],0.8
same,IC50,[9],1800 nM
same,Vd,[10],7 L/kg
same,Drug uptake,[11],Not Active
same,AUC(0-inf),[12],25700 ng·h/mL
same,concentration at 24 h,[13],2000 nM
same,remaining at 1 h,[14],89.7%
same,AUC,[15],6114.4 µg·min/mL
same,Cmax,[16],5500 ng/mL
same,clearance,[17],8 mL/min/kg
same,Activity,[18],Non-Toxic
same,t1/2,[19],280.9 min
same,Ratio IC50,[20],1.1
same,AUC(0-t) at 24 h,[21],25600 ng·h/mL
same,half-life,[22],465 min
same,Cmax,[23],15800 ng/mL
same,Vd,[24],3.4 L/kg
same,half-life,[25],538 min
same,clearance,[26],4.3 mL/min/kg
same,IC50,[27],1500 nM
same,Activity,[28],Non-Toxic
same,Papp at 5 h,[29],0.18 ×10⁻⁶ cm/s
same,Activity,[30],Non-Toxic
same,Activity,[31],Non-Toxic
same,Ratio IC50,[32],0.7
same,concentration at 4 h,[33],10 µM
same,AUC(0-inf),[34],30700 ng·h/mL
same,Tmax,[35],1 h
same,IC50,[36],2300 nM
same,dose excreted at 24 h,[37],100%
same,IC50,[38],2.1 µM
same,IC50,[39],1800 nM
Cc1ccccc1NC(=O)Nc1ccc(-n2cc(CCO)nn2)cc1,IC50,[1]; read-out: IC50,13000 nM
COCCc1cn(-c2ccc(NC(=O)Nc3ccccc3C)cc2)nn1,remaining at 1 h,[14],94.2%
O=C(Nc1ccc(-n2cc(CCO[C@H]3O[C@@H](CO)[C@H](O)[C@@H]3O)nn2)cc1)Nc1ccccc1C(F)(F)F,IC50,[1],Not Active
CC(C)CC(=O)OCCc1cn(-c2ccc(NC(=O)Nc3ccccc3C(F)(F)F)cc2)nn1,remaining at 1 h,[14],49.3%
same,Papp at 5 h,[29],4.24 ×10⁻⁶ cm/s
same,IC50,[38],> 50 µM
O=C(Nc1ccc(-n2cc(CCO)nn2)cc1)Nc1ccccc1C(F)(F)F,IC50,[1]; read-out: IC50,11200 nM
same,IC50,[38],> 50 µM
CCCCc1cn(-c2ccc(NC(=O)Nc3cc(OP(=O)(OCC)OCC)ccc3C)cc2)nn1,IC50,[1]; read-out: IC50,940 nM
same,remaining at 1 h,[14],85.2%
same,Papp at 5 h,[29],0.68 ×10⁻⁶ cm/s
same,IC50,[38],5.5 µM
CCOCc1cn(-c2ccc(NC(=O)Nc3cc(C(C)C)ccc3C)cc2)nn1,IC50,[1]; read-out: IC50,1510 nM
same,IC50,[38],3.8 µM
CCCCc1cn(-c2ccc(NC(=O)Nc3cc(OC4CCOC4)ccc3C)cc2)nn1 (stereo not given),IC50,[1]; read-out: IC50,100 nM
same,IC50,[38],2.6 µM
CCOC(=O)CCc1cn(-c2ccc(NC(=O)Nc3ccccc3C(F)(F)F)cc2)nn1,IC50,[1]; read-out: IC50,2020 nM
same,remaining at 1 h,[14],16.9%
same,Papp at 5 h,[29],1.56 ×10⁻⁶ cm/s
same,IC50,[38],> 50 µM
